Patent US5773412A, “Use of peptides for altering αV β3 -mediated binding” (priority 1995, dated 1998)
Entries after “also recorded” stand apart in the source; their conditions may differ. Where a SMILES comes first, the peptide text is derived from it. Bridges are numbered along the chain shown (N, C = ends). [ ]: non-standard residue; d: D form. Tic = O=C(O)[C@@H]1Cc2ccccc2CN1; Pen = CC(C)(S)[C@H](N)C(=O)O; Mpa = O=C(O)CCS

Experiments:
[1] = Parathyroid hormone-induced hypercalcemia in mice; type: in vivo; details: parathyroidectomized Swiss-Webster mice, 4 hr peptide infusion, 0.2 mg PTH/kg i.v.; in words
From the text: Parathyroid hormone (PTH) activates osteoclasts, which are involved in bone resorption. Associated with the increased osteoclast activity is an increase in serum calcium. The PTH-induced hypercalcemia assay measures the level of serum calcium, which is an indication of bone resorption in a subject (Fischer et al., Endocrinology 132:1411-1413 (1993), which is incorporated herein by reference).
Swiss-Webster mice, which had been parathyroidectomized two weeks prior to beginning the assay, were obtained from Taconic Lab Animals and Services (Germantown N.Y.). Femoral vein catheters (PE-50 fused with PE10 polyethylene tubing; Becton Dickinson; Parsippany, N.J.) were installed in the mice, flushed and locked with heparinized saline (1:10), sutured to adjacent muscle and internalized within the inguinal space of the incision before closing the incision with wound clips. […]
The experiment was initiated by feeding the mice a calcium-deficient diet overnight, then injecting the mice the following morning with a bolus of 0.2 mg PTH/kg (hPTH 1-34; Bachem; Torrance Calif.), intravenously. […] Various doses of a peptide or vehicle were infused into an animal for 4 hr, then ionized serum calcium again was measured. […] Serum calcium measurements were expressed as the difference between the value 30 min before the PTH pulse and 4 hr after peptide infusion was started. […]

αv β3 receptor = molecular target: T1, αv β3 receptor (Homo sapiens, UniProt P05106+P06756); test: αvβ3 competitive ELISA; type: binding; details: IC50 in αvβ3 ELISA / JY cells versus αvβ5 and α5β1 ELISAs; in words
T1 construct: The αv β3 receptor was purified from octylglucopyranoside-extracted human placenta; from tissue; host or cells: human placenta
Method: Peptide binding to purified human αv β5 and αv β3, which are VnR's, and to α5 β1 which is a FnR, was determined using competitive ELISA assays as described below.
Peptide binding to purified αv β3 receptor was determined by using a competitive ELISA, in which αv β3 receptor was immobilized and the binding of solubilized VN, in the presence of various concentrations of peptide analogue, was detected using a monoclonal mouse IgG anti-VN antibody and a labelled anti-mouse IgG conjugate.
96 well microtiter plates were coated overnight at RT with 100 μl/well of αv β3 receptor (0.5 μg/ml in 1X TBS, 4 mM octylglucoside, 1 mM CaCl2). The wells were blocked with 200 μl/well of 1% BSA in 1X TBS, 1 mM CaCl2 for at least 30 min. The plates were washed 2× with 1X TBS, 1 mM CaCl2. 50 μl peptide in 1X TBS, 1 mM CaCl2, 0.05% TWEEN 20 (polyoxyethylenesorbitan monolaurate) was added in 10-fold serial dilutions. 50 μl of Vn in the same buffer then was added to each well.
The plates were incubated for 3 hr at RT, then washed 3× with 1X TBS, 0.05% TWEEN 20 (polyoxyethylenesorbitan monolaurate). 100 μl of 8E6 (Telios) diluted to 1:6000 in 1X TBS, 0.05% TWEEN 20 (polyoxyethylenesorbitan monolaurate) was added to the wells and the plates were incubated for 1 hr at RT. Plates were washed 3× with 1X TBS, 0.05% TWEEN 20 (polyoxyethylenesorbitan monolaurate). Affinity purified goat anti-mouse IgG conjugated to horseradish peroxidase (100μl/well; BioRad; Hercules Calif.) was added to each well and incubated for 1 hr at RT. Plates were washed 3× with 1X TBS, 0.05% TWEEN 20 (polyoxyethylenesorbitan monolaurate). 100 μl/well of substrate mixture (10 mg O-phenylenediamine in 25 ml 0.1M citrate-phosphate buffer, pH 5.0, 6 μl 30% H2 O2) was added to the plates and allowed to develop. The development process was stopped by adding 50 μl to 4N H2 SO4 to each well. The plates were read at 490 nm and the data analyzed by four parameter fit.

[2] = tested on: osteoclasts; αv β3 integrin receptor; test: Series of assays of Example II (summary of potency and selectivity, FIG. 2); details: in words
[3] = Half-life of peptide in serum; type: in vivo; details: in words
From the text: Increased stability of a disulfide bonded peptide of the invention also can be conferred by incorporating a hydrophobic amino acid residue such as phenylalanine at position X1 or X8 or both X1 and X8 in an RGDNTic (SEQ ID NO: 31) or RGDDV (SEQ ID NO: 1) pharmacophore as disclosed herein. The presence of such a residue can stabilize the disulfide bond against enzymatic degradation (see Bauer et al., Life Sciences 31:1133-1140 (1982)). […] In addition, the half-life of a peptide in a subject can be determined, for example, by high performance liquid chromatography (HPLC) of serum samples collected from the subject at various times following administration of the peptide. One skilled in the art would know how to select appropriate elution buffers for HPLC based on the physico-chemical properties of a particular peptide.

[4] = in vivo; Fisher et al.; cited from earlier work
osteoclasts = details: in vitro; Sato et al., EP 437,367; cited from earlier work
αv β3 integrin receptor = details: Choi et al. 1994; cited from earlier work

CC(C)[C@@H]1NC(=O)[C@H](CC(=O)O)NC(=O)[C@H](CC(=O)O)NC(=O)CNC(=O)[C@H](CCCNC(=N)N)NC(=O)CCSSC[C@@H](C(N)=O)NC1=O [compound 191] ([Mpa]RGDDVC-NH2; disulfide 1-7)
PTH-induced rise in serum ionized calcium [1]: decreased the PTH-induced rise in serum ionized calcium in a dose responsive manner

CC(=O)N[C@H]1CSSC(C)(C)[C@@H](C(N)=O)NC(=O)[C@@H]2CCCN2C(=O)[C@H](CC(N)=O)NC(=O)[C@H](CC(=O)O)NC(=O)CNC(=O)[C@H](CCCNC(=N)N)NC1=O [compound 228] (Ac-CRGDNP[Pen]-NH2; disulfide 1-7)
receptor selectivity for αv β3 compared to αv β5 and α5 β1 (αv β3 receptor): particularly receptor selective

CC[C@H](C)[C@@H]1NC(=O)[C@@H](NC(=O)CN)C(C)(C)SSC[C@@H](C(=O)N[C@@H](C)C(=O)O)NC(=O)[C@H](CC(C)C)NC(=O)[C@H](CC(=O)O)NC(=O)[C@H](CC(=O)O)NC(=O)CNC(=O)[C@H](CCCNC(=N)N)NC(=O)[C@H](C)NC1=O [compound 448] (H-G[Pen]IARGDDLCA-OH; disulfide 2-10)
receptor selectivity for αv β3 compared to αv β5 and α5 β1 (αv β3 receptor): particularly receptor selective

CC(=O)N[C@H]1CSSC[C@@H](C(N)=O)NC(=O)[C@@H]2Cc3ccccc3CN2C(=O)[C@H](CO)NC(=O)[C@H](CC(=O)O)NC(=O)CNC(=O)[C@H](CCCNC(=N)N)NC1=O [compound 812, Ac-CRGDS(Tic)C--NH2] (Ac-CRGDS[Tic]C-NH2; disulfide 1-7)
potency (active at a relatively low concentration) [2]: particularly potent
activity (FIG. 2) ([2]; minimally essential elements): demonstrate activity

CC(C)[C@@H]1NC(=O)[C@H](CC(=O)O)NC(=O)[C@H](CC(=O)O)NC(=O)CNC(=O)[C@H](CCCNC(=N)N)NC(=O)[C@H](C)NC(=O)[C@H](C)NC(=O)[C@@H](NC(=O)CN)C(C)(C)SSC[C@@H](C(=O)N[C@@H](C)C(N)=O)NC1=O [compound 814] (H-G[Pen]AARGDDVCA-NH2; disulfide 2-10)
receptor selectivity for αv β3 compared to αv β5 and α5 β1 (αv β3 receptor): receptor selective for αv β3; also recorded: particularly receptor selective

CC(=O)N[C@@H]1C(=O)N[C@@H](Cc2ccccc2)C(=O)N[C@@H](C)C(=O)N[C@@H](CCCNC(=N)N)C(=O)NCC(=O)N[C@@H](CC(=O)O)C(=O)N[C@@H](CC(N)=O)C(=O)N2CCC[C@H]2C(=O)N[C@H](C(N)=O)CSSC1(C)C [peptide 214] (Ac-[Pen]FARGDNPC-NH2; disulfide 1-9)
potency (active at a relatively low concentration) [2]: particularly potent

CC(=O)N[C@@H](Cc1ccccc1)C(=O)N[C@H]1CSSC[C@@H](C(N)=O)NC(=O)[C@H](Cc2ccccc2)NC(=O)[C@H]([C@@H](C)O)NC(=O)[C@H](CC(=O)O)NC(=O)CNC(=O)[C@H](CCCNC(=N)N)NC1=O [peptide 220] (Ac-FCRGDTFC-NH2; disulfide 2-8)
half-life in serum [3]: relatively long half-life in serum

Echistatin
inhibition of bone resorption [4]: inhibits bone resorption
inhibition of bone resorption (osteoclasts): inhibits bone resorption in vitro

G(Pen)GRGDSPCA
inhibition of neointimal hyperplasia (αv β3 integrin receptor): can inhibit neointimal hyperplasia
